Laboratory results taken from patent US5034380A, “Alkoxymethylidene epipodophyllotoxin glucosides” (Bristol-Myers Squibb Company, priority 1989, dated 1991).
Converted amounts (≈) assume the structure as drawn.

How the values were obtained:
[1] = test system: murine transplantable P388 leukemia; experiment: in vivo antitumor activity against P388 leukemia in mice (single ip dose, median survival time); set-up: species or system murine (female CDF1 mice); settings: Q1D × 1, ip; for T/C % of MST: day 1
Method: Representative compounds of the present invention were evaluated for antitumor activity against murine transplantable P388 leukemia. Female CDF1 mice were inoculated intraperitoneally with approximately 10^6 P388 leukemic cells (day 0). […] The percent increase of median survival time (MST) of treated animals over that of untreated control animals was determined and reported as % T/C. Compounds showing % T/C values of 125 or greater are considered to have significant antitumor activity.

[2] = test system: B16-F10 murine melanoma; experiment: in vitro cytotoxicity, B16-F10 murine melanoma; type: cell-based; settings: Mus musculus; B16-F10, 72 hours, neutral red
Method: (§1) Representative compounds of the present invention were also tested in in vitro cytotoxicity assays against four tumor cell lines. These cell lines were grown and maintained at 37° C. under a humidified atmosphere in a 5% CO2 incubator:
B16-F10 murine melanoma in Eagle's MEM medium (Nissui) containing kanamycin (60 μg/ml) and supplemented with heat-inactivated fetal calf serum (FCS, 10 %) and non-essential amino acids (0.6 %);
(§2) In experiments using the B16-F10 and Moser cell lines, exponentially growing cells were harvested, counted and suspended in the culture medium at a concentration of 1.5×10^4 and 3×10^4 cells/ml, respectively. Twenty-four hours after planting cell suspension (180 μl) into wells of a 96-well microtiter plate, test materials (20 μl) were added to the wells and the plates were incubated for 72 hours. Cytotoxicity against the tumor cells was colorimetrically determined at 540 nm after staining viable cells with neutral red solution. For the K562 and K562/ADM cell lines, 900 μl of the cell suspension (8×10^4 cells/ml) was incubated with test materials (100 μl) at 37° C., 5% CO2 for 48 hours in a 24-well tissue culture plate. Cytotoxicity was determined by counting the number of cells using a cell counter.

[3] = test system: Moser human colon carcinoma; experiment: in vitro cytotoxicity, Moser human colon carcinoma; type: cell-based; settings: 72 hours, neutral red
Method: as §1
Moser human colon carcinoma in Eagle's MEM medium supplemented with FCS (10 %);
as §2

[4] = test system: K562/ADM, an adriamycin-resistant subline; experiment: in vitro cytotoxicity, K562/ADM adriamycin-resistant subline; type: cell-based; settings: Homo sapiens, 48 hours, cell counter
Method: as §1
(§3) K562 human myelogenous leukemia and K562/ADM, an adriamycin-resistant subline which was kindly provided by Dr. Takashi Tsuruo (University of Tokyo) in RPMI 1640 medium (Nissui) supplemented with FCS (10 %), penicillin (100 U/ml) and streptomycin (100 μg/ml).
as §2

[5] = test system: K562 human myelogenous leukemia; experiment: in vitro cytotoxicity, K562 human myelogenous leukemia; type: cell-based; settings: K562, 48 hours, cell counter
Method: as §1, §3, §2

COc1cc([C@@H]2c3cc4c(cc3[C@@H](O[C@@H]3O[C@@H]5CO[C@H](OC)O[C@H]5[C@H](O)[C@H]3O)[C@H]3COC(=O)[C@H]23)OCO4)cc(OC)c1O [Compound 1a, 4'-Demethyl-4-O-(4,6-O-β-Methoxymethylidene-β-D-Glucopyranosyl)Epipodophyllotoxin]
T/C % of MST ([1]; 0.1 mg/kg): 115%
T/C % of MST ([1]; 0.3 mg/kg): 132%
T/C % of MST ([1]; 1 mg/kg): 137%
T/C % of MST ([1]; 3 mg/kg): 142%
T/C % of MST ([1]; 10 mg/kg): 149%
T/C % of MST ([1]; 30 mg/kg): 166%
T/C % of MST ([1]; 60 mg/kg): 195%
T/C % of MST ([1]; 120 mg/kg): 248%
IC50 [2]: 0.094 µg/mL (≈ 0.155 µM)

COc1cc([C@@H]2c3cc4c(cc3[C@@H](O[C@@H]3O[C@@H]5CO[C@@H](OC)O[C@H]5[C@H](O)[C@H]3O)[C@H]3COC(=O)[C@H]23)OCO4)cc(OC)c1O [Compound 1b, 4'-Demethyl-4-O-(4,6-O-α-Methoxymethylidene-β-D-Glucopyranosyl)EpipodophYllotoxin]
T/C % of MST ([1]; 0.1 mg/kg): 110%
T/C % of MST ([1]; 0.3 mg/kg): 120%
T/C % of MST ([1]; 1 mg/kg): 130%
T/C % of MST ([1]; 3 mg/kg): 145%
T/C % of MST ([1]; 10 mg/kg): 165%
T/C % of MST ([1]; 30 mg/kg): 180%
IC50 [3]: 3.4 µg/mL (≈ 5.62 µM)
IC50 [2]: 0.27 µg/mL (≈ 0.447 µM)

CCO[C@H]1OC[C@H]2O[C@@H](O[C@@H]3c4cc5c(cc4[C@@H](c4cc(OC)c(O)c(OC)c4)[C@H]4C(=O)OC[C@@H]43)OCO5)[C@H](O)[C@@H](O)[C@@H]2O1 [Compound 2a, 4'-Demethyl-4-O-(4,6-O-β-Ethoxymethylidene-β-D-Glucopyranosyl)Epipodophyllotoxin]
IC50 [4]: > 50 µg/mL
IC50 [5]: 0.065 µg/mL (≈ 0.105 µM)
T/C % of MST ([1]; 0.1 mg/kg): 114%
T/C % of MST ([1]; 0.3 mg/kg): 119%
T/C % of MST ([1]; 1 mg/kg): 124%
T/C % of MST ([1]; 3 mg/kg): 133%
T/C % of MST ([1]; 10 mg/kg): 148%
T/C % of MST ([1]; 30 mg/kg): 171%
T/C % of MST ([1]; 60 mg/kg): 181%
T/C % of MST ([1]; 120 mg/kg): 214%
IC50 [3]: 1.7 µg/mL (≈ 2.75 µM)
IC50 [2]: 0.11 µg/mL (≈ 0.178 µM)

CCO[C@@H]1OC[C@H]2O[C@@H](O[C@@H]3c4cc5c(cc4[C@@H](c4cc(OC)c(O)c(OC)c4)[C@H]4C(=O)OC[C@@H]43)OCO5)[C@H](O)[C@@H](O)[C@@H]2O1 [Compound 2b, 4'-Demethyl-4-O-(4,6-O-α-Ethoxymethylidene-α-D-Glucopyranosyl)Epipodophyllotoxin]
IC50 [4]: > 50 µg/mL
IC50 [5]: 0.18 µg/mL (≈ 0.291 µM)
T/C % of MST ([1]; 0.1 mg/kg): 114%
T/C % of MST ([1]; 0.3 mg/kg): 114%
T/C % of MST ([1]; 1 mg/kg): 119%
T/C % of MST ([1]; 3 mg/kg): 138%
T/C % of MST ([1]; 10 mg/kg): 143%
T/C % of MST ([1]; 30 mg/kg): 167%
T/C % of MST ([1]; 60 mg/kg): 200%
Number of survivors/tested on day 50 ([1]; 120 mg/kg): 1/4
T/C % of MST ([1]; 120 mg/kg): 219%
IC50 [3]: 2.2 µg/mL (≈ 3.56 µM)
IC50 [2]: 0.54 µg/mL (≈ 0.873 µM)

COc1cc([C@@H]2c3cc4c(cc3[C@@H](O[C@@H]3O[C@@H]5COC(OC)(OC)O[C@H]5[C@H](O)[C@H]3O)[C@H]3COC(=O)[C@H]23)OCO4)cc(OC)c1O [Compound 3, 4'-Demethyl-4-O-(4,6-O-Dimethoxymethylidene-β-D-Glucopyranosyl)Epipodophyllotoxin]
T/C % of MST ([1]; 0.1 mg/kg): 125%
T/C % of MST ([1]; 0.3 mg/kg): 135%
T/C % of MST ([1]; 1 mg/kg): 135%
T/C % of MST ([1]; 3 mg/kg): 140%
T/C % of MST ([1]; 10 mg/kg): 170%
T/C % of MST ([1]; 30 mg/kg): 190%
T/C % of MST ([1]; 60 mg/kg): 170%
Number of survivors/tested on day 50 ([1]; 120 mg/kg): 1/4
T/C % of MST ([1]; 120 mg/kg): 210%
IC50 [3]: 3.3 µg/mL (≈ 5.2 µM)
IC50 [2]: 2.7 µg/mL (≈ 4.25 µM)

CCOC1(OCC)OC[C@H]2O[C@@H](O[C@@H]3c4cc5c(cc4[C@@H](c4cc(OC)c(O)c(OC)c4)[C@H]4C(=O)OC[C@@H]43)OCO5)[C@H](O)[C@@H](O)[C@@H]2O1 [Compound 4, 4'-Demethyl-4-O-(4,6-Diethoxymethylidene-β-D-Glucopvranosyl)Epipodophyllotoxin]
IC50 [4]: 32 µg/mL (≈ 48.3 µM)
IC50 [5]: 0.082 µg/mL (≈ 0.124 µM)
T/C % of MST ([1]; 0.1 mg/kg): 100%
T/C % of MST ([1]; 0.3 mg/kg): 109%
T/C % of MST ([1]; 1 mg/kg): 127%
T/C % of MST ([1]; 3 mg/kg): 132%
T/C % of MST ([1]; 10 mg/kg): 136%
T/C % of MST ([1]; 30 mg/kg): 145%
T/C % of MST ([1]; 60 mg/kg): 150%
T/C % of MST ([1]; 120 mg/kg): 182%
IC50 [3]: 3 µg/mL (≈ 4.53 µM)
IC50 [2]: 7.3 µg/mL (≈ 11 µM)

COc1cc([C@@H]2c3cc4c(cc3[C@@H](O[C@@H]3O[C@@H]5CO[C@@H](C)O[C@H]5[C@H](O)[C@H]3O)[C@H]3COC(=O)[C@H]23)OCO4)cc(OC)c1O [Etoposide, reference compound]
T/C % of MST ([1]; 0.1 mg/kg): 120%
T/C % of MST ([1]; 0.3 mg/kg): 130%
T/C % of MST ([1]; 1 mg/kg): 136%
T/C % of MST ([1]; 3 mg/kg): 143%
T/C % of MST ([1]; 10 mg/kg): 163%
T/C % of MST ([1]; 30 mg/kg): 185%
T/C % of MST ([1]; 60 mg/kg): 212%
T/C % of MST ([1]; 120 mg/kg): 288%
